# Measured values published in PubChem BioAssay (NCI).
#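 Method: 48-hour compound exposure of cells in 96-well plates, five concentrations, linear interpolation of endpoints. TGI marks complete inhibition of growth.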
# Experiments:
# Assay in all cases: NCI anticancer screen, dose series, 48 h
# MDA-MB-231 breast = system: MDA-MB-231 breast
# SW-620 colon = system: SW-620 colon
# SK-MEL-5 melanoma = system: SK-MEL-5 melanoma
# EKVX NSCLC = system: EKVX NSCLC
# T-47D breast = system: T-47D breast
# HCC-2998 colon = system: HCC-2998 colon
# NCI-H23 lung = system: NCI-H23 lung
# ACHN renal = system: ACHN renal
# HOP-92 NSCLC = system: HOP-92 NSCLC
# PC-3 prostate = system: PC-3 prostate
# HCT-116 colon = system: HCT-116 colon
# UO-31 renal = system: UO-31 renal
# SK-MEL-2 melanoma = system: SK-MEL-2 melanoma
# A549 NSCLC = system: A549 NSCLC
# DU-145 prostate = system: DU-145 prostate
# NCI-H226 lung = system: NCI-H226 lung
# SNB-19 CNS = system: SNB-19 CNS
# K-562 leukemia = system: K-562 leukemia
# MCF7 breast = system: MCF7 breast
# UACC-257 melanoma = system: UACC-257 melanoma
# MALME-3M melanoma = system: MALME-3M melanoma
# MDA-MB-435 = system: MDA-MB-435
# OVCAR-4 ovarian = system: OVCAR-4 ovarian
# OVCAR-5 ovarian = system: OVCAR-5 ovarian
# 786-0 renal = system: 786-0 renal
# OVCAR-3 ovarian = system: OVCAR-3 ovarian
# COLO 205 colon = system: COLO 205 colon
# HOP-62 NSCLC = system: HOP-62 NSCLC
# OVCAR-8 ovarian = system: OVCAR-8 ovarian
# RPMI-8226 leukemia = system: RPMI-8226 leukemia
# TK-10 renal = system: TK-10 renal
# HL-60(TB) leukemia = system: HL-60(TB) leukemia
# NCI-H522 lung = system: NCI-H522 lung
# NCI-H460 lung = system: NCI-H460 lung
# NCI/ADR-RES ovarian = system: NCI/ADR-RES ovarian
# IGROV1 ovarian = system: IGROV1 ovarian
# MOLT-4 leukemia = system: MOLT-4 leukemia
# SF-268 CNS = system: SF-268 CNS
# U251 CNS = system: U251 CNS
# HS 578T breast = system: HS 578T breast
# SNB-75 CNS = system: SNB-75 CNS
# M14 melanoma = system: M14 melanoma
# SR leukemia = system: SR leukemia
# KM12 colon = system: KM12 colon
# UACC-62 melanoma = system: UACC-62 melanoma
# HT29 colon = system: HT29 colon
# BT-549 breast = system: BT-549 breast
# CAKI-1 renal = system: CAKI-1 renal
# SK-OV-3 ovarian = system: SK-OV-3 ovarian
# SF-539 CNS = system: SF-539 CNS
# HCT-15 colon = system: HCT-15 colon
# CCRF-CEM leukemia = system: CCRF-CEM leukemia
# SF-295 CNS = system: SF-295 CNS
# LOX IMVI melanoma = system: LOX IMVI melanoma
# SN12C renal = system: SN12C renal
# SK-MEL-28 melanoma = system: SK-MEL-28 melanoma
# RXF 393 renal = system: RXF 393 renal
# A498 renal = system: A498 renal
smiles,measurement,setting,value
CCOC(=O)COc1c(OC)cc(C2C3=C(COC3=O)Oc3cc4c(cc32)OCO4)cc1OC (stereo unspecified),TGI,MDA-MB-231 breast,> 100 µM
same,TGI,SW-620 colon,> 65.9 µM
same,TGI,SK-MEL-5 melanoma,13.8 µM
same,TGI,EKVX NSCLC,> 100 µM
same,TGI,T-47D breast,17.7 µM
same,TGI,HCC-2998 colon,30.7 µM
same,TGI,NCI-H23 lung,14.2 µM
same,TGI,ACHN renal,> 45.8 µM
same,TGI,HOP-92 NSCLC,> 45.1 µM
same,TGI,PC-3 prostate,> 100 µM
same,TGI,HCT-116 colon,> 100 µM
same,TGI,UO-31 renal,> 100 µM
same,TGI,SK-MEL-2 melanoma,> 100 µM
same,TGI,A549 NSCLC,> 100 µM
same,TGI,DU-145 prostate,> 29.1 µM
same,TGI,NCI-H226 lung,> 100 µM
same,TGI,SNB-19 CNS,> 100 µM
same,TGI,K-562 leukemia,12.2 µM
same,TGI,MCF7 breast,> 100 µM
same,TGI,UACC-257 melanoma,> 100 µM
same,TGI,MALME-3M melanoma,> 100 µM
same,TGI,MDA-MB-435,0.89 µM
same,TGI,OVCAR-4 ovarian,24.9 µM
same,TGI,OVCAR-5 ovarian,> 100 µM
same,TGI,786-0 renal,15.5 µM
same,TGI,OVCAR-3 ovarian,78.4 µM
same,TGI,COLO 205 colon,4.88 µM
same,TGI,HOP-62 NSCLC,> 100 µM
same,TGI,OVCAR-8 ovarian,47 µM
same,TGI,RPMI-8226 leukemia,0.954 µM
same,TGI,TK-10 renal,20.9 µM
same,TGI,HL-60(TB) leukemia,0.539 µM
same,TGI,NCI-H522 lung,3.14 µM
same,TGI,NCI-H460 lung,49.4 µM
same,TGI,NCI/ADR-RES ovarian,> 37.3 µM
same,TGI,IGROV1 ovarian,33.7 µM
same,TGI,MOLT-4 leukemia,41.8 µM
same,TGI,SF-268 CNS,> 100 µM
same,TGI,U251 CNS,81.9 µM
same,TGI,HS 578T breast,> 57.1 µM
same,TGI,SNB-75 CNS,> 100 µM
same,TGI,M14 melanoma,> 100 µM
same,TGI,SR leukemia,27.1 µM
same,TGI,KM12 colon,> 100 µM
same,TGI,UACC-62 melanoma,> 31.6 µM
same,TGI,HT29 colon,8.29 µM
same,TGI,BT-549 breast,98.1 µM
same,TGI,CAKI-1 renal,38.1 µM
same,TGI,SK-OV-3 ovarian,> 57.5 µM
same,TGI,SF-539 CNS,43 µM
same,TGI,HCT-15 colon,> 100 µM
same,TGI,CCRF-CEM leukemia,0.965 µM
same,TGI,SF-295 CNS,> 26.3 µM
same,TGI,LOX IMVI melanoma,> 100 µM
same,TGI,SN12C renal,> 73 µM
ClC1(c2ccccc2)c2ccc(Br)cc2-c2cc(Br)ccc21,TGI,MDA-MB-231 breast,30.7 µM
same,TGI,SW-620 colon,36.3 µM
same,TGI,SK-MEL-28 melanoma,35.8 µM
same,TGI,SK-MEL-5 melanoma,29.1 µM
same,TGI,EKVX NSCLC,32.3 µM
same,TGI,T-47D breast,58.3 µM
same,TGI,HCC-2998 colon,36.2 µM
same,TGI,NCI-H23 lung,29.3 µM
same,TGI,ACHN renal,29.6 µM
same,TGI,HOP-92 NSCLC,29.2 µM
same,TGI,PC-3 prostate,31.3 µM
same,TGI,HCT-116 colon,28.5 µM
same,TGI,UO-31 renal,29.6 µM
same,TGI,SK-MEL-2 melanoma,32.5 µM
same,TGI,A549 NSCLC,34.3 µM
same,TGI,DU-145 prostate,48.1 µM
same,TGI,NCI-H226 lung,36.4 µM
same,TGI,SNB-19 CNS,31.3 µM
same,TGI,K-562 leukemia,> 100 µM
same,TGI,RXF 393 renal,36.6 µM
same,TGI,MCF7 breast,36 µM
same,TGI,UACC-257 melanoma,34.9 µM
same,TGI,MALME-3M melanoma,32.5 µM
same,TGI,MDA-MB-435,27.4 µM
same,TGI,OVCAR-4 ovarian,27.3 µM
same,TGI,OVCAR-5 ovarian,31.4 µM
same,TGI,786-0 renal,30.2 µM
same,TGI,A498 renal,32.8 µM
same,TGI,OVCAR-3 ovarian,30.6 µM
same,TGI,COLO 205 colon,33.7 µM
same,TGI,HOP-62 NSCLC,33.4 µM
same,TGI,OVCAR-8 ovarian,35.8 µM
same,TGI,RPMI-8226 leukemia,64.8 µM
same,TGI,TK-10 renal,34.8 µM
same,TGI,HL-60(TB) leukemia,> 100 µM
same,TGI,NCI-H522 lung,30.6 µM
same,TGI,NCI-H460 lung,27.4 µM
same,TGI,NCI/ADR-RES ovarian,34.3 µM
same,TGI,IGROV1 ovarian,30.2 µM
same,TGI,MOLT-4 leukemia,> 100 µM
same,TGI,SF-268 CNS,39.7 µM
same,TGI,U251 CNS,31.6 µM
same,TGI,HS 578T breast,50.3 µM
same,TGI,M14 melanoma,28.7 µM
same,TGI,SR leukemia,70.6 µM
same,TGI,KM12 colon,38.5 µM
same,TGI,HT29 colon,26 µM
same,TGI,BT-549 breast,37.7 µM
same,TGI,CAKI-1 renal,29.4 µM
same,TGI,SK-OV-3 ovarian,39.1 µM
same,TGI,SF-539 CNS,33.3 µM
same,TGI,HCT-15 colon,33.8 µM
same,TGI,CCRF-CEM leukemia,> 100 µM
same,TGI,SF-295 CNS,31.8 µM
same,TGI,LOX IMVI melanoma,33.2 µM
same,TGI,SN12C renal,34.9 µM
